Reference: patent US10881110B2, “Herbicidal compositions comprising isoxazolo[5,4-b]pyridines” (BASF SE, priority 2014, dated 2021)

Legend:
Assay in all cases: greenhouse post-emergence herbicidal test
[1] = system: POLCO; format: in vivo, Polygonum convolvulus; parameters: key to herbicidal activity against POLCO found: rating on a scale from 0 to 100
Procedure, shortened: (§1)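 Herbicidal activity scored on a 0 (no damage) to 100 (plants destroyed) scale, usually 20 days after water-based spraying of 1–15 cm plants grown in loamy sand at 10-25 °C or 20-35 °C depending on species. Components were applied from 10% emulsion concentrates; Colby's E=X+Y−(X·Y/100) gives the additive expectation.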

[2] = system: ALOMY; format: in vivo, Alopecurus myosuroides; parameters: key to herbicidal activity against ALOMY found: rating on a scale from 0 to 100; conditions: post emergence
Procedure, shortened: (§2)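 Visual rating at 20 days after treatment used a 0–100 scale, where 100 meant no emergence or complete destruction of above-ground parts. Seedlings of 1–15 cm, grown at species-dependent 10-25° C or 20-35° C, received water-based spray liquor containing the formulated components.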

[3] = system: AMBEL; format: in vivo, Ambrosia artemisiifolia; parameters: key: rating on a scale from 0 to 100
Method: (§3) The culture containers used were plastic pots containing medium loamy sand with approximately 4.6% of humus and 69.9% sand as substrate. The seeds of the test plants were sown separately for each species.
(§4) For the post-emergence treatment, the test plants were grown to a plant height of from 1 to 15 cm, depending on the plant habit, and only then treated with the active compounds which had been suspended or emulsified in water. To this end, the test plants were either sown directly, and grown in the same containers, or they were first grown separately as seedlings and transplanted into the test containers a few days prior to treatment.
(§5) Depending on the species, the plants were kept at 10-25° C. and 20-35° C., respectively.
(§6) The test period extended over 1 to 3 weeks. During this time, the plants were tended and their response to the individual treatments was evaluated 20 days after treatment except mentioned otherwise.
(§7) Evaluation was carried out using a scale from 0 to 100. 100 means no emergence of the plants, or complete destruction of at least the above-ground parts, and 0 means no damage or normal course of growth.
(§8) The respective stated components A and B, and, if appropriate, C, were formulated as a 10% by weight strength emulsion concentrate and, with addition of the amount of solvent system, introduced into the spray liquor used for applying the active compound. In the examples, the solvent used was water.
(§9) In the examples below, using the method of S. R. Colby (1967) “Calculating synergistic and antagonistic responses of herbicide combinations”, Weeds 15, p. 22 ff., the value E, which is expected if the activity of the individual active compounds is only additive, was calculated. E=X+Y−(X·Y/100)

[4] = system: ECHCG; format: in vivo, Echinochloa crus-galli; parameters: key to herbicidal activity against ECHCG found / herbicidal activity against ECHCH found: scale 0 to 100
Procedure, shortened: as §2

[5] = system: APESV; format: in vivo, Apera spica-venti; parameters: key to herbicidal activity against APESV found: rating on a scale from 0 to 100
Procedure, shortened: as §2

[6] = system: ERICA; format: in vivo, Conyza canadensis; parameters: key to herbicidal activity against ERICA found: rating on a scale from 0 to 100; conditions: post emergence
Procedure, shortened: as §2

[7] = system: IPOHE; format: in vivo, Ipomoea hederacea; parameters: key to herbicidal activity against IPOHE found: rating on a scale from 0 to 100; conditions: post emergence
Procedure, shortened: as §1

[8] = system: GERDI; format: in vivo, Geranium dissectum; parameters: key to herbicidal activity against GERDI found: rating on a scale from 0 to 100; conditions: single active, post emergence
Procedure, shortened: as §2

[9] = system: VIOAR; format: in vivo, Viola arvensis; parameters: key to herbicidal activity against VIOAR found / herbicidal activity against VIOLA found: rating on a scale from 0 to 100; conditions: post emergence; for herbicidal activity against VIOAR found: B.84 (paraquat-dichloride) 17.5 g/ha, alone or as mixture (composition 1.84)
Procedure, shortened: as §1

[10] = system: MATCH; format: in vivo, Matricaria recutita; parameters: key to herbicidal activity against MATCH found: rating on a scale from 0 to 100
Procedure, shortened: as §2

[11] = system: SASKR; format: in vivo, Salsola kali; parameters: key: scale 0 to 100
Method: as §3, §4, §5, §6, §7, §8, §9

[12] = system: GALAP; format: in vivo, Galium aparine; parameters: key to herbicidal activity against GALAP found: rating on a scale from 0 to 100
Procedure, shortened: as §1

[13] = system: PAPRH; format: in vivo, Papaver rhoeas; parameters: key: rating on a scale from 0 to 100; conditions: B.93 alone 1.5 g/ha a.i.
Procedure, shortened: as §2

[14] = system: CONAR; format: in vivo, Convolvulus arvensis; parameters: key: rating on a scale from 0 to 100
Method: as §3, §4, §5, §6, §7, §8, §9

[15] = system: CHEAL; format: in vivo, Chenopodium album
Method: as §3, §4, §5, §6, §7, §8, §9

[16] = system: ABUTH; format: in vivo, Abutilon theophrast; parameters: key to herbicidal activity against ABUTH found: rating on a scale from 0 to 100
Procedure, shortened: as §2

[17] = single active, 175 g/ha a.i., post emergence
[18] = single active, 350 g/ha a.i., post emergence
[19] = post emergence, application rate a.i.: I.1 62.5 g/ha, B.84 (paraquat-dichloride) 17.5 g/ha, alone or as mixture (composition 1.84)
[20] = application rate a.i.: I.1 31.25 g/ha, B.84 (paraquat-dichloride) 17.5 g/ha, alone or as mixture (composition 1.84)
[21] = Echinochloa crus-galli, post-emergence, 480 h, read-out: herbicidal activity against ECHCG found
[22] = Abutilon theophrasti, post-emergence, 480 h, read-out: herbicidal activity against ABUTH found
[23] = a.i. g/ha: I.1 31.25, B.69 25, 20 days after treatment
[24] = a.i. g/ha: I.1 62.5, B.69 25, 20 days after treatment
[25] = post emergence, a.i. g/ha: I.1 62.5, B.69 25, 20 days after treatment

COCC(C)N(C(=O)CCl)c1c(C)csc1C (stereo not drawn) [DMTA]
herbicidal activity against POLCO found [1, 17]: 0 | herbicidal activity against POLCO found [1, 18]: 25 | herbicidal activity against ALOMY found ([2]; single active, 175 g/ha a.i.): 0 | herbicidal activity against ALOMY found ([2]; single active, 350 g/ha a.i.): 45 | herbicidal activity against AMBEL found ([3]; single active, 175 g/ha a.i.): 0 | herbicidal activity against AMBEL found ([3]; single active, 350 g/ha a.i.): 20 | herbicidal activity against ECHCG found [4, 17]: 90 | herbicidal activity against APESV found [5, 17]: 95 | herbicidal activity against ERICA found ([6]; single active, 175 g/ha a.i.): 15 | herbicidal activity against IPOHE found ([7]; single active, 350 g/ha a.i.): 25 | herbicidal activity against GERDI found ([8]; 175 g/ha a.i.): 30 | herbicidal activity against GERDI found ([8]; 350 g/ha a.i.): 60 | herbicidal activity against VIOLA found ([9]; single active, 175 g/ha a.i.): 0 | herbicidal activity against MATCH found [10, 17]: 30 | herbicidal activity against MATCH found [10, 18]: 30

CS(=O)(=O)c1ccc(C(=O)C2C(=O)CCCC2=O)c(Cl)c1COCC(F)(F)F [B.106, tembotrione]
pest or weed control at 9.375 g/ha ([6]; Erigeron canadensis, post-emergence, 480 h, 9.375 g/ha a.i., read-out: herbicidal activity against ERICA found): 90% | pest or weed control at 9.375 g/ha ([7]; Ipomoea hederacea, post-emergence, 480 h, 9.375 g/ha a.i., read-out: herbicidal activity against IPOHE found): 70% | herbicidal activity against SASKR found ([11]; 9.375 g/ha a.i.): 65 | pest or weed control at 9.375 g/ha ([10]; Matricaria chamomilla, post-emergence, 480 h, post emergence, 9.375 g/ha a.i., read-out: herbicidal activity against MATCH found): 65%

Cc1nn(-c2cc(NS(C)(=O)=O)c(Cl)cc2Cl)c(=O)n1C(F)F [B.93, sulfentrazone]
pest or weed control at 3 g/ha ([1]; Fallopia convolvulus, post-emergence, 480 h, B.93 alone 3 g/ha a.i., post emergence, read-out: herbicidal activity against POLCO found): 85% | pest or weed control at 6 g/ha ([1]; Fallopia convolvulus, post-emergence, 480 h, B.93 alone 6 g/ha a.i., post emergence, read-out: herbicidal activity against POLCO found): 85% | pest or weed control at 1.5 g/ha ([2]; Alopecurus myosuroides, post-emergence, 480 h, B.93 alone 1.5 g/ha a.i., read-out: herbicidal activity against ALOMY found): 0% | herbicidal activity against AMBEL found ([3]; B.93 alone 1.5 g/ha a.i.): 20 | herbicidal activity against AMBEL found ([3]; B.93 alone 6 g/ha a.i.): 30 | pest or weed control at 1.5 g/ha ([5]; Apera spica-venti, post-emergence, 480 h, B.93 alone 1.5 g/ha a.i., post emergence, read-out: herbicidal activity against APESV found): 10% | pest or weed control at 1.5 g/ha ([12]; Galium aparine, post-emergence, 480 h, B.93 alone 1.5 g/ha a.i., post emergence, read-out: herbicidal activity against GALAP found): 45% | herbicidal activity against PAPRH found [13]: 70 | pest or weed control at 1.5 g/ha ([10]; Matricaria chamomilla, post-emergence, 480 h, B.93 alone 1.5 g/ha a.i., post emergence, read-out: herbicidal activity against MATCH found): 0% | pest or weed control at 3 g/ha ([10]; Matricaria chamomilla, post-emergence, 480 h, B.93 alone 3 g/ha a.i., post emergence, read-out: herbicidal activity against MATCH found): 50% | pest or weed control at 6 g/ha ([10]; Matricaria chamomilla, post-emergence, 480 h, B.93 alone 6 g/ha a.i., post emergence, read-out: herbicidal activity against MATCH found): 50%

C[n+]1ccc(-c2cc[n+](C)cc2)cc1 [B.84, paraquat-dichloride]
herbicidal activity against POLCO found [1, 19]: 30 | herbicidal activity against AMBEL found [3, 20]: 90 | herbicidal activity against ERICA found [6, 20]: 35 | herbicidal activity against GALAP found ([12]; post emergence, application rate a.i.: I.1 31.25 g/ha, B.84 (paraquat-dichloride) 17.5 g/ha, alone or as mixture (composition 1.84)): 55 | herbicidal activity against CONAR found ([14]; application rate a.i.: I.1 62.5 g/ha, B.84 (paraquat-dichloride) 17.5 g/ha, alone or as mixture (composition 1.84)): 10 | herbicidal activity against VIOAR found ([9]; application rate a.i.: I.1 31.25 g/ha): 55 | herbicidal activity against VIOAR found ([9]; application rate a.i.: I.1 62.5 g/ha): 55 | herbicidal activity against SASKR found [11, 20]: 70 | herbicidal activity against MATCH found [10, 19]: 80

CCNc1nc(Cl)nc(NC(C)(C)C)n1 [B.82, terbuthylazine]
herbicidal activity against CHEAL found ([15]; a.i. g/ha: I.1 62.5, B.82 31.25, 20 days after treatment): 65% | herbicidal activity against GALAP found ([12]; post emergence, a.i. g/ha: I.1 62.5, B.82 31.25, 20 days after treatment): 55%

COc1nc(C)nc(=NC(=O)NS(=O)(=O)c2ccccc2C(=O)O)[nH]1 [metsulfuron]
pest or weed control at 0.125 g/ha ([1]; Fallopia convolvulus, post-emergence, 480 h, read-out: herbicidal activity against POLCO found): 30% | herbicidal activity against AMBEL found ([3]; metsulfuron alone 0.125 g/ha a.i.): 0 | pest or weed control at 0.125 g/ha [4, 21]: 0% | pest or weed control at 0.25 g/ha [4, 21]: 25% | pest or weed control at 0.25 g/ha ([5]; Apera spica-venti, post-emergence, 480 h, read-out: herbicidal activity against APESV found): 30% | pest or weed control at 0.125 g/ha ([12]; Galium aparine, post-emergence, 480 h, read-out: herbicidal activity against GALAP found): 10% | pest or weed control at 0.125 g/ha [16, 22]: 20% | pest or weed control at 0.25 g/ha [16, 22]: 80% | pest or weed control at 0.125 g/ha ([10]; Matricaria chamomilla, post-emergence, 480 h, read-out: herbicidal activity against MATCH found): 0%

CCOc1cc(Oc2ccc(C(F)(F)F)cc2Cl)ccc1[N+](=O)[O-] [B.91, oxyfluorfen]
pest or weed control at 100 g/ha ([2]; Alopecurus myosuroides, post-emergence, 480 h, single active, 100 g/ha a.i., read-out: herbicidal activity against ALOMY found): 85% | herbicidal activity against AMBEL found ([3]; single active, 100 g/ha a.i.): 70 | pest or weed control at 100 g/ha ([4]; Echinochloa crus-galli, post-emergence, 480 h, single active, 100 g/ha a.i., post emergence, read-out: herbicidal activity against ECHCG found): 60% | pest or weed control at 100 g/ha ([6]; Erigeron canadensis, post-emergence, 480 h, single active, 100 g/ha a.i., read-out: herbicidal activity against ERICA found): 0% | pest or weed control at 200 g/ha ([6]; Erigeron canadensis, post-emergence, 480 h, single active, 200 g/ha a.i., read-out: herbicidal activity against ERICA found): 90%

N#Cc1cc(Br)c(O)c(Br)c1 [B.69, bromoxynil]
herbicidal activity against CHEAL found [15, 23]: 60% | herbicidal activity against CHEAL found [15, 24]: 60% | herbicidal activity against ERICA found [6, 24]: 30% | herbicidal activity against GALAP found [12, 25]: 50% | herbicidal activity against CONAR found [14, 23]: 50% | herbicidal activity against CONAR found [14, 24]: 50% | herbicidal activity against ABUTH found [16, 25]: 35% | herbicidal activity against MATCH found ([10]; post emergence, a.i. g/ha: I.1 31.25, B.69 25, 20 days after treatment): 0%
